# Measurements reported in ChEMBL document CHEMBL1201862, “PubChem BioAssay data set” (2004).
# The source made the active and inactive calls.
# What was measured:
# Format in all cases: functional
# [1] = biological target: Dual specificity protein kinase CLK2 (Homo sapiens, UniProt P49760)
# [2] = biological target: cGMP-dependent protein kinase 1 (Homo sapiens, UniProt Q13976);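 further: value from a kinome panel screen with PRKG1 as the panel member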
# [3] = biological target: Phosphorylase b kinase gamma catalytic chain, liver/testis isoform (Homo sapiens, UniProt P15735);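 further: PHKG2 measured as one member of a kinome-wide kinase panel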
# [4] = biological target: Protein kinase C delta type (Homo sapiens, UniProt Q05655)
# [5] = biological target: Serine/threonine-protein kinase D2 (Homo sapiens, UniProt Q9BZL6);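 further: measured against PRKD2 as one member of a kinome-wide kinase profiling panel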
# [6] = biological target: Tyrosine-protein kinase receptor TYRO3 (Homo sapiens, UniProt Q06418);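 further: TYRO3 value obtained as one member of a kinome-wide profiling panel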
# [7] = biological target: Serine/threonine-protein kinase pim-1 (Homo sapiens, UniProt P11309)
# [8] = biological target: Mitogen-activated protein kinase 9 (Homo sapiens, UniProt P45984);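 further: value from a kinome panel profiling assay, MAPK9 panel entry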
# [9] = biological target: Tyrosine-protein kinase Blk (Homo sapiens, UniProt P51451);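 further: obtained as one member of a kinome-wide kinase assay panel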
# [10] = biological target: Testis-specific serine/threonine-protein kinase 1 (Homo sapiens, UniProt Q9BXA7)
# [11] = biological target: High affinity nerve growth factor receptor (Homo sapiens, UniProt P04629);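 further: NTRK1 tested as one member of a kinome-wide profiling panel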
# Insulin receptor = Insulin receptor (Homo sapiens, UniProt P06213);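 further: insulin receptor kinase tested as one member of a kinome-wide kinase panel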
# [12] = biological target: Non-receptor tyrosine-protein kinase TYK2 (Homo sapiens, UniProt P29597)
# [13] = biological target: Mitogen-activated protein kinase kinase kinase kinase 2 (Homo sapiens, UniProt Q12851);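 further: measured as one member of a kinome-wide kinase panel, with MAP4K2 as the panel entry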
# [14] = biological target: Receptor tyrosine-protein kinase erbB-2 (Homo sapiens, UniProt P04626); test: Navigating the Kinome. Panel member name: ERBB2
# [15] = biological target: MAP kinase-activated protein kinase 3 (Homo sapiens, UniProt Q16644);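 further: value comes from a kinome-wide profiling panel in which MAPKAPK3 is one of the panel members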
# [16] = biological target: Vascular endothelial growth factor receptor 2 (Homo sapiens, UniProt P35968)
# [17] = biological target: Serine/threonine-protein kinase Nek4 (Homo sapiens, UniProt P51957)
# [18] = biological target: Dual specificity tyrosine-phosphorylation-regulated kinase 4 (Homo sapiens, UniProt Q9NR20)
# Aurora kinase B = Aurora kinase B (Homo sapiens, UniProt Q96GD4)
# [19] = biological target: Calcium/calmodulin-dependent protein kinase type 1 (Homo sapiens, UniProt Q14012)
# [20] = biological target: Tyrosine-protein kinase Fyn (Homo sapiens, UniProt P06241)
# [21] = biological target: STE20-like serine/threonine-protein kinase (Homo sapiens, UniProt Q9H2G2)
# [22] = biological target: Glycogen synthase kinase-3 beta (Homo sapiens, UniProt P49841);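 further: value comes from a broad kinome profiling panel, with GSK3B as the panel member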
# [23] = biological target: Tyrosine-protein kinase receptor UFO (Homo sapiens, UniProt P30530)
# Sequence of Mitogen-activated protein kinase 9 (P45984 whole entry): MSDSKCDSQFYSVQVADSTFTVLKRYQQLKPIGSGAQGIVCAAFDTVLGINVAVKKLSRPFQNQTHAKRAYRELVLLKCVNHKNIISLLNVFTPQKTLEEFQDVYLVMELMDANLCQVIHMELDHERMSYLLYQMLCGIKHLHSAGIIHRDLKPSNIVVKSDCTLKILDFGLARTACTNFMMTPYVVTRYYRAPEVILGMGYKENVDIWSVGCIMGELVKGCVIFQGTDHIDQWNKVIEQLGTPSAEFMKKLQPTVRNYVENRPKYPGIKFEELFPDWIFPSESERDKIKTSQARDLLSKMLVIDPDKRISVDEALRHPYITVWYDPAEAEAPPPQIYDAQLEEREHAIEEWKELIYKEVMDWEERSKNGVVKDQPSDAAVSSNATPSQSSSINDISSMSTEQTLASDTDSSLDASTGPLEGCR
# Sequence of Dual specificity tyrosine-phosphorylation-regulated kinase 4 (Q9NR20 whole entry): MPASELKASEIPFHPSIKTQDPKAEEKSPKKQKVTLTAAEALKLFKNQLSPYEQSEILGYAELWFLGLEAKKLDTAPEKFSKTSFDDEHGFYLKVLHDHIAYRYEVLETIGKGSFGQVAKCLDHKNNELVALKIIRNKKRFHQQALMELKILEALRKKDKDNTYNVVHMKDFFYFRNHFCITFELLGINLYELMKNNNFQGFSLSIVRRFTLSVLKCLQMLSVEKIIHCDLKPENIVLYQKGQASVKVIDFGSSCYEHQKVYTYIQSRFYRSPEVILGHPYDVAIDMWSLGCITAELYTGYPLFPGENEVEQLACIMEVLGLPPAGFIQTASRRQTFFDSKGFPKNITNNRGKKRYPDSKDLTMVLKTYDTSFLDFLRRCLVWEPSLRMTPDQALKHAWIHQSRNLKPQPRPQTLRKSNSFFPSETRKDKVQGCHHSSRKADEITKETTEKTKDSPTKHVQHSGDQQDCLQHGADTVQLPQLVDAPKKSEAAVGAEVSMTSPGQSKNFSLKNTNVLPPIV
# Sequence of Protein kinase C delta type (Q05655 whole entry): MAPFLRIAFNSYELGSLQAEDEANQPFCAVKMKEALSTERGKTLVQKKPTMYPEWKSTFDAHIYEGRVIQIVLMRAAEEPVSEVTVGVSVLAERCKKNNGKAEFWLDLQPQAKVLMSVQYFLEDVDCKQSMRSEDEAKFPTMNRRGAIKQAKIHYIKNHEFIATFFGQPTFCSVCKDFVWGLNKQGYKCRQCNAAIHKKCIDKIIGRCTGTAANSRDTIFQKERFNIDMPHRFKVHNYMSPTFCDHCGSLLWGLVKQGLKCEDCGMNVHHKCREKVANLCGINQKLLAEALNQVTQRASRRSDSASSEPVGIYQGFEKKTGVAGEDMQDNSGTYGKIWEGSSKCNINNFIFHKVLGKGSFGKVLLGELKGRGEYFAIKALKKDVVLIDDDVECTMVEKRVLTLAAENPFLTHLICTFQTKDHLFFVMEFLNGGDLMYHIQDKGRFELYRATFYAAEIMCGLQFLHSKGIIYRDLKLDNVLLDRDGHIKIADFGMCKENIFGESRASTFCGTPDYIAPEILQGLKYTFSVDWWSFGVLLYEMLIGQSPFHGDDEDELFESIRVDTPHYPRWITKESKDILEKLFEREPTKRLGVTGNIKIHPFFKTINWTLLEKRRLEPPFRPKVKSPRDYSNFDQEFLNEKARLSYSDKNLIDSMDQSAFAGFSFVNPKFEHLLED
# Sequence of Tyrosine-protein kinase Fyn (P06241 whole entry): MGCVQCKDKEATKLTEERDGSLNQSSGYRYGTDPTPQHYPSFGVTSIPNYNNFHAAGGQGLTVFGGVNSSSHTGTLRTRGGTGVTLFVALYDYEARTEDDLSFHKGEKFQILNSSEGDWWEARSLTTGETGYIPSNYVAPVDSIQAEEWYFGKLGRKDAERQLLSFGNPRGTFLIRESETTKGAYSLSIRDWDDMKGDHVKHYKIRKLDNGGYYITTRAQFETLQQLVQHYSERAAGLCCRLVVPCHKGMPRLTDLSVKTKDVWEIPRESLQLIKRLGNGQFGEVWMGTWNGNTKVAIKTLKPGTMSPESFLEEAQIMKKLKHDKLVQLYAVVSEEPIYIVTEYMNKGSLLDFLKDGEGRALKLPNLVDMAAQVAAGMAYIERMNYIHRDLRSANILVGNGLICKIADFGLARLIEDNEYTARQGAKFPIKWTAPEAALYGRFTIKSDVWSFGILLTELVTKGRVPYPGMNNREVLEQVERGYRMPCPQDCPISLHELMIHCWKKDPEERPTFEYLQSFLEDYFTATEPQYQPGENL
# Sequence of Insulin receptor (P06213 28-758 limits assumed): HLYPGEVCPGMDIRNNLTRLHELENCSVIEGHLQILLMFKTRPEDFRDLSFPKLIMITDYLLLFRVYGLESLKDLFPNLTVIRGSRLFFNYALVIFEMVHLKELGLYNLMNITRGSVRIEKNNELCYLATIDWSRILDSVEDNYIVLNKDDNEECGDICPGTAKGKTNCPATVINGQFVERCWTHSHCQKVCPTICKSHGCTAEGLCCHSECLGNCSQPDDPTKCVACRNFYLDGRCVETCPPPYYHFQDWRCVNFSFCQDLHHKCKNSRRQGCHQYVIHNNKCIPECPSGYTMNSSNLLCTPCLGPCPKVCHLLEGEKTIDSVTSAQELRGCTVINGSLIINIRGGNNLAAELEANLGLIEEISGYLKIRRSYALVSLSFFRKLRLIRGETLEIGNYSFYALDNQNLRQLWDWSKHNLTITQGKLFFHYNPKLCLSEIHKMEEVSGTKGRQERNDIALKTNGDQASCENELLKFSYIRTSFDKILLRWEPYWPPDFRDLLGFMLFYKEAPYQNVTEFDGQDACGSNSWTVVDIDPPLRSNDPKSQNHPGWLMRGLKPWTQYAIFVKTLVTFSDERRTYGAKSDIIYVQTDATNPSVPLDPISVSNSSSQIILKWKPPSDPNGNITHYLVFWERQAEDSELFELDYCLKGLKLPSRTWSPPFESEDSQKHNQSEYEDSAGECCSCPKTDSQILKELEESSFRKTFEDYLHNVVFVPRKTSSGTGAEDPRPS
# Sequence of Insulin receptor (P06213 763-1382 limits assumed): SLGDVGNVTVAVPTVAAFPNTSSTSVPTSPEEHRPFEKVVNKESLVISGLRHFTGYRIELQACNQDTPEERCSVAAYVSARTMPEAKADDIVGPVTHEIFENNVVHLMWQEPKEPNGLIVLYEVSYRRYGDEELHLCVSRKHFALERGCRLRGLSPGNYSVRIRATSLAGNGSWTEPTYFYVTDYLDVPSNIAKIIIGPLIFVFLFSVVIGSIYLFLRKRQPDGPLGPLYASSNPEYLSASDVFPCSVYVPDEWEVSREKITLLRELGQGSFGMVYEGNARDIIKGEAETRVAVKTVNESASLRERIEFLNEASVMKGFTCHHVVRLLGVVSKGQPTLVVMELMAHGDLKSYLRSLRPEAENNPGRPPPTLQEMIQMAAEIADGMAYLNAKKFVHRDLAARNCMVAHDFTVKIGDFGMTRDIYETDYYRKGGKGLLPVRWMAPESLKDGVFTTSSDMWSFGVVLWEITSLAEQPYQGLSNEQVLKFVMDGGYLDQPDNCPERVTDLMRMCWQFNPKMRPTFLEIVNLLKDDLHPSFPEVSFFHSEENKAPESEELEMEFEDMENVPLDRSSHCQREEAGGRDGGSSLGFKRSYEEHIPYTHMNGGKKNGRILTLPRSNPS
# Sequence of cGMP-dependent protein kinase 1 (Q13976 whole entry, canonical isoform): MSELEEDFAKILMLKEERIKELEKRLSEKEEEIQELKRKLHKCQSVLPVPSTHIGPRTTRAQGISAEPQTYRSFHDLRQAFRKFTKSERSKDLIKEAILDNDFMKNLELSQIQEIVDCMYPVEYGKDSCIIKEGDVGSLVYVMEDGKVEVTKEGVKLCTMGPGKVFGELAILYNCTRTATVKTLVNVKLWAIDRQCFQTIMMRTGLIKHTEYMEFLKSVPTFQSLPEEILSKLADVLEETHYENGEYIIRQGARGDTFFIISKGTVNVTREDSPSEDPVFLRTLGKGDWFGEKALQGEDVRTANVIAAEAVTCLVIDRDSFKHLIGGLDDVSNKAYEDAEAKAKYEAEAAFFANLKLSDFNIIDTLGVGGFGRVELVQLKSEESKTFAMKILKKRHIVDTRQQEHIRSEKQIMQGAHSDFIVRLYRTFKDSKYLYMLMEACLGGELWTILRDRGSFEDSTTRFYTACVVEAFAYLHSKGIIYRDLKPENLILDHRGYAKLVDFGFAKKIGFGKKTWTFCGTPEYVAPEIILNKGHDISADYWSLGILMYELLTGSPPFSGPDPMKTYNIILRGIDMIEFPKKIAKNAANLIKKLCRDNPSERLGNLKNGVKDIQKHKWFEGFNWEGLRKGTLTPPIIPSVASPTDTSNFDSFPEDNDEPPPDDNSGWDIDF
# Sequence of Phosphorylase b kinase gamma catalytic chain, liver/testis isoform (P15735 whole entry, canonical isoform): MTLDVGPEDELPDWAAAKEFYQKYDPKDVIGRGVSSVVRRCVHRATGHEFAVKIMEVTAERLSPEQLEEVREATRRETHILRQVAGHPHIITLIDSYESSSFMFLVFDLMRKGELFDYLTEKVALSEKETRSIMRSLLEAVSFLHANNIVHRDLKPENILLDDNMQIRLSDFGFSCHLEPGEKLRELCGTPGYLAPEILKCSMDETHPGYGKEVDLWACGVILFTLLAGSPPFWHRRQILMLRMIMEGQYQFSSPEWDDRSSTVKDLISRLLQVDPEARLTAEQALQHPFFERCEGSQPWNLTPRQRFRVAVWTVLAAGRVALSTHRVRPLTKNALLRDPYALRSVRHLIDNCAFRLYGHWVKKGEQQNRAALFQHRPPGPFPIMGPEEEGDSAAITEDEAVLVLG
# Sequence of Glycogen synthase kinase-3 beta (P49841 whole entry): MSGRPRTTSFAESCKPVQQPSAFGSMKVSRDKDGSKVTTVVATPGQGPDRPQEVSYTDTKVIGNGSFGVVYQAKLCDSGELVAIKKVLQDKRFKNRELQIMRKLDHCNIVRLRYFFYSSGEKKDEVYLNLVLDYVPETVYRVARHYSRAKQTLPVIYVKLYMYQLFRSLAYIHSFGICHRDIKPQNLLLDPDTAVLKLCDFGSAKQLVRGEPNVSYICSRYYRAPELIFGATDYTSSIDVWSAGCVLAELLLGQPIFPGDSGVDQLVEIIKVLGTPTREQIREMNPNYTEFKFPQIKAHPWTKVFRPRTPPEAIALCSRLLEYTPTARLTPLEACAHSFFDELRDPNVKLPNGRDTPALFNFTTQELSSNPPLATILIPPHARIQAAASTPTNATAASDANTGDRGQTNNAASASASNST
structure (smiles),measurement,setting,value
NC(=O)Cn1cc(-c2cc(-c3cc4ccccc4s3)c3[nH]ncc3c2)c2nc(N)ncc21,Ki,[1],1000 nM (active)
same,Ki,[2],398 nM (active)
same,Ki,[3],3160 nM (active)
same,Ki,[4],5010 nM (active)
same,Ki,[5],794 nM (active)
same,Ki,[6],> 2000 nM (inactive)
same,Ki,[7],3160 nM (active)
same,Ki,[8],1260 nM (active)
same,Ki,[9],> 1580 nM (inactive)
same,Ki,[10],> 1580 nM (inactive)
same,Ki,[11],> 2510 nM (inactive)
same,Ki,Insulin receptor,> 5010 nM (inactive)
same,Ki,[12],> 2000 nM (inactive)
same,Ki,[13],501 nM (active)
same,Ki,[14],1000 nM (active)
same,Ki,[15],10000 nM (active)
same,Ki,[16],1260 nM (active)
same,Ki,[17],3980 nM (active)
same,Ki,[18],2000 nM (active)
same,Ki,Aurora kinase B,3980 nM (active)
same,Ki,[19],> 5010 nM (inactive)
same,Ki,[20],> 794 nM (inactive)
same,Ki,[21],1580 nM (active)
same,Ki,[22],100 nM (active)
same,Ki,[23],> 2000 nM (inactive)
